“Also recorded” adds a separate entry of the source. Marks after values point to notes of the source that are not given here.
Legend:
[1] = tested on: human D1 receptor knock-in mice; experiment: Basal (Habituated) Locomotor Activity; format: in vivo, mouse; conditions: for Basal Locomotor Activity (Total Ambulations for 60 min), mean: male human D1 knock-in mice, N = 8/group; for Effect on basal movement / locomotor activation (in words): oral dose response, habituated human D1 knock-in mice
Experimental: Locomotor activity is measured using an automated system to track movement in mice. Monitoring of mouse locomotor activity behaviors take place in transparent plastic shoebox cages having dimensions of 45×25×20 cm, with a 1 cm depth of wood chips for absorbent bedding, and covered with a ventilated filtered plastic cage top. Cages were placed in a rectangular frame containing a grid of 12 photocell beams in an 8×4 configuration (Kinder Scientific, Poway, Calif.) that is positioned 2.5 centimeters from the floor of the cage for the detection of body movements (ambulations) and recorded by computer.
Male human D1 receptor knock-in mice are placed in chambers and allowed to habituate to the chambers for 60 min. During the habituation period, the mice show decreasing locomotion over time, as expected. Following administration of a compound of the invention, animal movement is found to increase in a dose-dependent fashion.
The mice are randomly assigned to treatment groups. In the dose response study, each mouse is placed individually into one of the locomotor activity boxes for a 60 min. habituation period. The mice are then dosed orally using test compound in a 20% hydroxypropyl-betacyclodextrin vehicle and using a 10 mL/kg dose volume. After dosing, the mice are placed back into the LMA boxes and the total number of ambulations is recorded per 10 min interval for each mouse over a 60 min measurement period. Statistical analysis is carried out using one-way ANOVA followed by post-hoc analysis using Dunnett's Comparison test.

normal rats = experiment: In vivo tolerability in normal rats; conditions: broad dose range
Excerpt: Compounds of the invention, for instance Example 1, show an advantageous combination of pharmacological properties, such as potentiation of human D1 receptor signaling in response to dopamine, high oral in vivo availabilty, in vivo efficacy in locomotor activation of animals that are habituated to the environment, and a favorable toxicity profile in preclinical testing. […].

How did the “Basal Locomotor Activity (Total Ambulations for 60 min), mean” value (shortened to “Basal Locomotor Activity”) ([1]; 1.0 mg/kg PO) turn out when C[C@H]1c2cccc(-c3cnn(C)c3)c2C[C@H](CO)N1C(=O)Cc1c(Cl)cccc1Cl [Example 1, 2-(2,6-dichlorophenyl)-1-((1S,3R)-3-(hydroxymethyl)-1-methyl-5-(1-methyl-1H-pyrazol-4-yl)-3,4-dihydroisoquinolin-2(1H)-yl)ethan-1-one] was run?
The value was 410.

And the “Basal Locomotor Activity” value ([1]; 3.0 mg/kg PO)?
The value was 490.

What about the “Basal Locomotor Activity” value ([1]; 6.0 mg/kg PO) of the same molecule?
Its value is 1517*.

What about the “Basal Locomotor Activity” value ([1]; 10 mg/kg PO) of the same molecule?
The value was 2426***.

And the “Basal Locomotor Activity” value ([1]; 30 mg/kg PO)?
Its value is 3568****.

What about the “Effect on basal movement / locomotor activation (in words)” value [1] of the same molecule?
The value was “increase basal movement in a dose dependent manner; also recorded: significant in vivo efficacy when orally administered at 6, 10, and 30 mg/kg PO”.

And the “Tolerability / toxicity in vivo (in words)” value (normal rats)?
The value was “generally well tolerated”.

C[C@H]1c2cccc(-c3cn[nH]c3)c2C[C@H](CO)N1C(=O)Cc1c(Cl)cccc1Cl [Example 8, 2-(2,6-dichlorophenyl)-1-((1S,3R)-3-(hydroxymethyl)-1-methyl-5-(1H-pyrazol-4-yl)-3,4-dihydroisoquinolin-2(1H)-yl)ethan-1-one] was tested. Which “Basal Locomotor Activity” value ([1]; 3.0 mg/kg PO) did it give?
The value was 335.

What about the “Basal Locomotor Activity” value ([1]; 10 mg/kg PO) of the same molecule?
Its value is 753.

What about the “Basal Locomotor Activity” value ([1]; 20 mg/kg PO) of the same molecule?
The value was 3629*.

And the “Basal Locomotor Activity” value ([1]; 30 mg/kg PO)?
Its value is 3746**.

And the “Basal Locomotor Activity” value ([1]; 60 mg/kg PO)?
The value was 4080 ***.

What about the “Effect on basal movement / locomotor activation (in words)” value [1] of the same molecule?
Its value is “increase basal movement in a dose dependent manner”.

Reference: patent US10611751B2, “Dopamine D1 receptor positive allosteric modulators” (Eli Lilly and Company, priority 2018, dated 2020)
